Source: patent US9670210B2, “Cyclopropylamines as LSD1 inhibitors” (Incyte Corporation, priority 2014, dated 2017)

Molecular target: LSD-1 enzyme (Homo sapiens (Human), UniProt O60341)
Protocol: LSD1 Histone Demethylase Biochemical Assay
LANCE LSD1/KDM1A demethylase assay-10 μL of 1 nM LSD-1 enzyme (ENZO BML-SE544-0050) in the assay buffer (50 mM Tris, pH 7.5, 0.01% Tween-20, 25 mM NaCl, 5 mM DTT) were preincubated for 1 hour at 25° C. with 0.8 μL compound/DMSO dotted in black 384 well polystyrene plates. […] After stopping the reactions plates were incubated for 30 minutes and read on a PHERAstar FS plate reader (BMG Labtech).

Compound	IC50 [nM]
N#Cc1ccc(OCC2(CN[C@@H]3C[C@H]3c3ccccc3)CCN(CC3(C(=O)O)CCC3)CC2)cc1 [Example 85, 1-{[4-[(4-cyanophenoxy)methyl]-4-({[(1R,2S)-2-phenylcyclopropyl]amino}methyl)piperidin-1-yl]methyl}cyclobutanecarboxylic acid]	< 100
N#Cc1ccc(OCC2(CN[C@@H]3C[C@H]3c3ccccc3)CCN(CC3(C(=O)O)CCC3)CC2)c(F)c1 [Example 86, 1-{[4-[(4-cyano-2-fluorophenoxy)methyl]-4-({[(1R,2S)-2-phenylcyclopropyl]amino}methyl)piperidin-1-yl]methyl}cyclobutanecarboxylic acid]	< 100
O=C(O)C1(CN2CCC(CN[C@@H]3C[C@H]3c3ccccc3)(COc3ccc(F)cn3)CC2)CC1 [Example 87, 1-{[4-{[(5-fluoropyridin-2-yl)oxy]methyl}-4-({[(1R,2S)-2-phenylcyclopropyl]amino}methyl)piperidin-1-yl]methyl}cyclopropanecarboxylic acid]	< 100
O=C(O)C1(CN2CCC(CN[C@@H]3C[C@H]3c3ccccc3)(COc3ncc(F)cn3)CC2)CC1 [Example 88, 1-{[4-{[(5-fluoropyrimidin-2-yl)oxy]methyl}-4-({[(1R,2S)-2-phenylcyclopropyl]amino}methyl)piperidin-1-yl]methyl}cyclopropanecarboxylic acid]	< 100
O=C(O)C1(CN2CCC(CN[C@@H]3C[C@H]3c3ccccc3)(COc3ncccc3F)CC2)CC1 [Example 89, 1-{[4-{[(3-fluoropyridin-2-yl)oxy]methyl}-4-({[(1R,2S)-2-phenylcyclopropyl]amino}methyl)piperidin-1-yl]methyl}cyclopropanecarboxylic acid]	< 100
CNC(=O)c1ccc(OCC2(CN[C@@H]3C[C@H]3c3ccccc3)CCN(CC3(C(=O)O)CC3)CC2)cn1 [Example 90, 1-{[4-[({6-[(methylamino)carbonyl]pyridin-3-yl}oxy)methyl]-4-({[(1R,2S)-2-phenylcyclopropyl]amino}methyl)piperidin-1-yl]methyl}cyclopropanecarboxylic acid]	< 100
CNC(=O)c1cccc(OCC2(CN[C@@H]3C[C@H]3c3ccccc3)CCN(CC3(C(=O)O)CC3)CC2)n1 [Example 91, 1-{[4-[({6-[(methylamino)carbonyl]pyridin-2-yl}oxy)methyl]-4-({[(1R,2S)-2-phenylcyclopropyl]amino}methyl)piperidin-1-yl]methyl}cyclopropanecarboxylic acid]	< 100
O=C(O)C1(CN2CCC(CN[C@@H]3C[C@H]3c3ccccc3)(COCC3CCC3)CC2)CCC1 [Example 93, 1-{[4-[(cyclobutylmethoxy)methyl]-4-({[(1R,2S)-2-phenylcyclopropyl]amino}methyl)piperidin-1-yl]methyl}cyclobutanecarboxylic acid]	< 100
O=C(O)C1(CN2CCC(CN[C@@H]3C[C@H]3c3ccccc3)(COC3CCCCC3)CC2)CC1 [Example 94, 1-{[4-[(cyclohexyloxy)methyl]-4-({[(1R,2S)-2-phenylcyclopropyl]amino}methyl)piperidin-1-yl]methyl}cyclopropanecarboxylic acid]	< 100
O=C(O)C1(CN2CCC(CN[C@@H]3C[C@H]3c3ccccc3)(COC3CCCCC3)CC2)CCC1 [Example 95, 1-{[4-[(cyclohexyloxy)methyl]-4-({[(1R,2S)-2-phenylcyclopropyl]amino}methyl)piperidin-1-yl]methyl}cyclobutanecarboxylic acid]	< 100
O=C(O)C1(CN2CCC(CN[C@@H]3C[C@H]3c3ccccc3)(Cc3ccc(F)cn3)CC2)CC1 [Example 96, 1-{[4-[(5-fluoropyridin-2-yl)methyl]-4-({[(1R,2S)-2-phenylcyclopropyl]amino}methyl)piperidin-1-yl]methyl}cyclopropanecarboxylic acid]	< 100
